{
  "source": "patent US6890533B2",
  "about": "“Betulinol derivatives” (Cornell Research Foundation, Inc., priority 1997, dated 2005)",
  "key": {"[1]": {"assay": "BBA solubility in organic solvents", "type": "physicochemical", "details": "for BBA Mass Content, %, at 20° C.: mass % in organic solvent", "description": "Studies of betulinol biacetate solubility were conducted in order to determine the appropriate solvent for product crystallization and purification."}, "[2]": {"system": "WALKER-CARCINOMA (carcinosarcoma)", "assay": "anti-carcinogenic activity in rats implanted with Walker carcinoma", "type": "in vivo, white rats", "details": "for ALL, % of control / ALL (Average length of life) / % cured: rats; for ALL (Average length of life): injected daily for 5 days; for % cured: cured rats lived over two months after implantation", "procedure": "The anti-carcinogenic activity of betulinol biacetate and betulonic aldehyde was assessed using 117-120 gram white rats implanted with worker's carcinoma and 21-23 gram white mice with artificially transplanted Ehrlich's tumor.\nSolutions of 2.5% betulonic aldehyde and 0.05% betulinol biacetate were prepared in 10% polyvinylpyrrolidone containing Tween-80 (a sorbitan mono-9-octadecenate poly(oxy-1,2-ethanediyl)) stabilizer.\nMice were injected with 0.1-0.2 ml of either betulinol biacetate or betulonic aldehyde solution daily, starting 24 hours after transplantation, for the following 5 days. Rats were injected with 1.2 ml of either betulinol biacetate or betulonic aldehyde solution daily, starting 24 hours after implantation, for the following 5 days. Animals in control groups received the same amount of a 10% solution of polyvinylpyrrolidone.\nThe anti-tumor effect of betulinol acetate or betulonic aldehyde was determined by measuring the volume of the tumor on the 10th day after implantation. An average length of life (“ALL”) was calculated for each of the deceased animals. In addition, the percentage of cured rats was also determined.\nThe volume of the tumor was measured and calculated as a multiple of the quadrate of its similar diameter by the greater diameter. Thus, the effect was expressed as a ratio (“E/C”), in percent, of the tumor volume in rats treated with betulinol acetate or betulonic aldehyde (“E”) and the tumor volume in control rats (“C”). The effect of betulinol acetate or betulonic aldehyde on ALL was evaluated the same way."}, "[3]": {"details": "Group 1, Dose/day 204.6 (mg/kg body weight)"}, "[4]": {"details": "Group 2, Dose/day 106.9 (mg/kg body weight)"}},
  "data": [
    {"compound": "C=C(C)[C@@H]1CC[C@]2(COC(C)=O)CC[C@]3(C)[C@H](CC[C@@H]4[C@@]5(C)CC[C@H](OC(C)=O)C(C)(C)[C@@H]5CC[C@]43C)[C@@H]12", "note": "[Betulinol diacetate, Betulinol Biacetate]", "values": [
      {"measurement": "BBA Mass Content, %, at 20° C.", "setting": "[1]; Benzene", "result": 100, "unit": "%"},
      {"measurement": "BBA Mass Content, %, at T (° C.)", "setting": "[1]; Butanol, T 95 ° C.", "result": 100, "unit": "%"},
      {"measurement": "BBA Mass Content, %, at 20° C.", "setting": "[1]; Chloroform", "result": 100, "unit": "%"},
      {"measurement": "BBA Mass Content, %, at 20° C.", "setting": "[1]; Dimethylsulfoxide", "result": 30, "unit": "%"},
      {"measurement": "BBA Mass Content, %, at T (° C.)", "setting": "[1]; Dimethylsulfoxide, T 189 ° C.", "result": 100, "unit": "%"},
      {"measurement": "BBA Mass Content, %, at T (° C.)", "setting": "[1]; Dioxane, T 101 ° C.", "result": 100, "unit": "%"},
      {"measurement": "BBA Mass Content, %, at 20° C.", "setting": "[1]; Hexane", "result": 15, "unit": "%"},
      {"measurement": "BBA Mass Content, %, at 20° C.", "setting": "[1]; Toluene", "result": 100, "unit": "%"},
      {"measurement": "ALL, % of control", "setting": "[2]; [3]", "result": 131.3, "unit": "%"},
      {"measurement": "ALL (Average length of life)", "setting": "[2]; [3]", "result": 28.5, "unit": "days"},
      {"measurement": "% cured", "setting": "[2]; [3]", "result": 50.0, "unit": "%"},
      {"measurement": "ALL, % of control", "setting": "[2]; [4]", "result": 200.5, "unit": "%"},
      {"measurement": "ALL (Average length of life)", "setting": "[2]; [4]", "result": 43.5, "unit": "days"},
      {"measurement": "% cured", "setting": "[2]; [4]", "result": 67.0, "unit": "%"},
      {"measurement": "rate of the tumor growth inhibited, of the control group", "setting": "[2]; tumor volume on the 10th day, versus control group", "result": 55.2, "unit": "%"}
    ]}
  ]
}
